Legend:
[1] = system: 5'-Cy5-Ba SAM-VI riboswitch (RNA, riboswitch) GGCAUUGUGCCUCGCAUUGCACUCCGCGGGGCGAUAAGUCCUGAAAAGGGAUGUC; assay: MST; conditions: 100 mM KCl, 25 mM MgCl2, 50 mM Tris-HCl pH 7.5, 2% DMSO
[2] = system: 5'-Cy5-Tte preQ1 riboswitch (RNA, riboswitch) CUGGGUCGCAGUAACCCCAGUUAACAAAACAAG; assay: MST; conditions: 100 mM KCl, 25 mM MgCl2, 50 mM Tris-HCl pH 7.5, 2% DMSO
[3] = system: 5'-Biotin-Ba SAM-VI riboswitch (RNA, riboswitch) GGCAUUGUGCCUCGCAUUGCACUCCGCGGGGCGAUAAGUCCUGAAAAGGGAUGUC; assay: SPR, 1:1 kinetic fit; conditions: 150 mM NaCl, 6 mM MgCl2; 50 mM HEPES pH 7.0, 25 °C
[4] = system: Ba SAM-VI riboswitch (label-free, IVT) (RNA, riboswitch) GGCAUUGUGCCUCGCAUUGCACUCCGCGGGGCGAUAAGUCCUGAAAAGGGAUGUC; assay: ITC; conditions: 50 mM KCl, 10 mM MgCl2; 40 mM HEPES pH 7.0, 25 °C, 0.2% DMSO
[5] = system: Tte preQ1 riboswitch (not labelled) (RNA, riboswitch) CUGGGUCGCAGUAACCCCAGUUAACAAAACAAG; assay: ITC; conditions: 100 mM NaCl, 6 mM MgCl2, 50 mM HEPES pH 7.0, 25 °C; for KD: 0.2% DMSO; for binding: loose binding in SPR
[6] = system: 5'-Biotin-Tte preQ1 riboswitch (RNA, riboswitch) CUGGGUCGCAGUAACCCCAGUUAACAAAACAAG; assay: SPR, 1:1 kinetic fit; conditions: 150 mM NaCl, 6 mM MgCl2, 50 mM HEPES pH 7.0, 25 °C
[7] = system: 5'-Biotin-Tte preQ1 riboswitch (RNA, riboswitch) CUGGGUCGCAGUAACCCCAGUUAACAAAACAAG; assay: SPR, Interaction Map analysis; conditions: 150 mM NaCl, 6 mM MgCl2; 50 mM HEPES pH 7.0, 25 °C, 2% DMSO
[8] = system: 5'-Biotin-Tte preQ1 riboswitch (RNA, riboswitch) CUGGGUCGCAGUAACCCCAGUUAACAAAACAAG; assay: SPR; conditions: 150 mM NaCl, 6 mM MgCl2; 50 mM HEPES pH 7.0, 25 °C; loose unspecific, no saturation to 50 µM, KD not determinable

## C[S+](CC[C@H](N)C(=O)O)C[C@H]1O[C@@H](n2cnc3c(N)ncnc32)[C@H](O)[C@@H]1O (some centres unmarked)
[1]; 20 nM RNA
  KD: 0.718 ± 0.399 × 10^-6 M
[2]; up to 1 mM
  binding: no
[3]
  KD: 3.72 ± 0.41 µM
[4]
  KD: 0.000671 ± 5.9e-05 mM

## N#Cc1c[nH]c2nc(N)[nH]c(=O)c12
[5]
  KD: 0.0854 ± 0.0033 µM
[1]; up to 1 mM
  binding: no
[6]; 2% DMSO
  KD: 0.074 ± 0.0294 µM
[2]; 20 nM RNA
  binding: yes
[7]
  KD: 0.134 µM

## NCCCCNCCCNCCOc1ccc2[nH]c3ccccc3c2c1
[5]; RNA 15 µM, ligand 150 µM
  binding: no
[1]; up to 1 mM
  binding: no

## NCCCCNCCCNCCOc1ccc2oc3ccccc3c2c1
[5]; RNA 15 µM, ligand 150 µM
  binding: no
[1]; up to 1 mM
  binding: no

## NCCCNCCOc1ccc2[nH]c3ccccc3c2c1
[5]; RNA 30 µM, ligand 300 µM
  binding: no
[1]; up to 1 mM
  binding: no

## NCCCNCCOc1ccc2oc3ccccc3c2c1
[5]; RNA 30 µM, ligand 300 µM
  binding: no
[1]; up to 1 mM
  binding: no

## NCCCNC[C@H]1O[C@@H](n2cnc3c(N)ncnc32)[C@H](O)[C@@H]1O
[1]; 20 nM RNA
  binding: yes
[2]; up to 1 mM
  binding: no
[3]
  KD: 4.17 ± 1.56 µM
[8]
  binding: weak
[4]
  KD: 0.00173 ± 0.00051 mM

## NCCOc1ccc2[nH]c3ccccc3c2c1
[5]; RNA 15 µM, ligand 150 µM
  binding: no
[1]; up to 1 mM
  binding: no

## NCCOc1ccc2oc3ccccc3c2c1
[5]; RNA 30 µM, ligand 300 µM
  binding: no
[1]; up to 1 mM
  binding: no

## NCc1c[nH]c2nc(N)[nH]c(=O)c12
[5]
  KD: 0.0231 ± 0.0074 µM
[1]; up to 1 mM
  binding: no
[6]; one representative sensorgram, replicates 18.5-47.4, mean not in material
  KD: 0.0191 µM
[2]; 20 nM RNA
  binding: yes

## Nc1ncnc2c1ncn2[C@@H]1O[C@H](CNCC[C@H](N)C(=O)O)[C@@H](O)[C@H]1O
[1]; 20 nM RNA
  KD: 33.3 µM
[2]; up to 1 mM
  binding: no
[3]
  KD: 12.3 ± 1.3 µM
[4]
  KD: 0.00331 ± 0.00021 mM

## Nc1ncnc2c1ncn2[C@@H]1O[C@H](CSCC[C@H](N)C(=O)O)[C@@H](O)[C@H]1O
[1]; 20 nM RNA
  KD: 34.4 ± 12.0 × 10^-6 M
[2]; up to 1 mM
  binding: no
[3]
  KD: 150 ± 39 µM
[4]
  KD: 0.014 ± 0.0042 mM

Source: paper PMC12035807 (2025)
